Key:
[1] = system: B. vulgatus, B. thetaiotaomicron, C. innocuum, and C. symbiosum; experiment: In vitro bacterial rescue study with leucovorin; type: cell-based
[2] = system: human gut microbiota; experiment: MTX treatment of gnotobiotic mice colonized with human stool; 16S-seq and qPCR of gut microbiota; type: in vivo; conditions: Donor 3 mice, oral MTX 50 mg/kg with or without equimolar folic acid
[3] = system: C. innocuum; experiment: In vitro bacterial rescue study with folic acid; type: cell-based, Clostridium innocuum; conditions: folic acid 0-250 μg/ml; MTX 0-450 μg/ml
Experimental: (§1) As described in the ur in vitro bacterial growth studies, 48-hour overnight cultures were grown in an anaerobic chamber in liquid BHI+ for the following isolates: Bacteroides vulgatus, Bacteroides thetaiotaomicron, Clostridium innocuum and Clostridium symbiosum. Each subculture was diluted down to an OD600 of 0.08-0.1, which was then further diluted 100-fold, and then used to inoculate a 96-well microtiter plate with 2-fold serial dilutions of MTX (Sigma, Cat #M9929) concentrations ranging from 0-450 μg/ml (0-990 μM) along the columns (1-10) and 2-fold serial dilutions of folic acid (Fischer Scientific, BP25195) ranging from 0-250 μg/ml (0-566 μM) along the rows (A-H). Each plate included media and growth controls. […]
(§2) Growth parameters (carrying capacity, time to mid-exponential and growth rate) were calculated in R using GrowthCurveR (Sprouffske, K., and Wagner, A. (2016), BMC Bioinformatics 17, 1726) (v0.2.1). […] For rescue studies, as above, growth parameters (carrying capacity, time to mid-exponential, growth rate, and area under the curve) were calculated in R using GrowthCurveR (Sprouffske and Wagner, 2016) (v0.2.1). Four isolates were evaluated with varying sensitivity to MTX (B. thetaiotaomicron, B. vulgatus, C. innocuum and C. symbiosum). […] Growth curves at 9 concentrations of MTX tested against 7 concentrations of folic acid were measured. […]

[4] = system: B. theta; experiment: In vitro bacterial rescue study with folic acid; type: cell-based, Bacteroides thetaiotaomicron; conditions: in the presence and absence of MTX; folic acid 0-250 μg/ml
Experimental: as §1, §2

[5] = system: B. vulgatus; experiment: In vitro bacterial rescue study with folic acid; type: cell-based, Bacteroides vulgatus; conditions: folic acid 0-250 μg/ml; MTX 0-450 μg/ml
Experimental: as §1, §2

[6] = system: C. symbiosum; experiment: In vitro bacterial rescue study with folic acid; type: cell-based, Clostridium symbiosum; conditions: MTX resistant isolate; high doses of MTX
Experimental: as §1, §2

Row | SMILES | effect of leucovorin on growth of the tested isolates ([1]; leucovorin 0-125 μg/ml (FIG. 4D and 4E)) | dose-dependent effects of leucovorin on growth in the presence of MTX ([1]; leucovorin 0-125 μg/ml, linear regression (FIG. 4F)) | rescue of the gut microbiota from MTX by co-administered folic acid (α- or β-diversity between groups) [2] | rescue of the gut microbiota from MTX by co-administered folic acid (α- or β-diversity between groups) ([2]; listed as Folic acid) | dose-dependent increases in growth with folic acid [3] | growth in response to folic acid [4] | dose-dependent increases in growth with folic acid [5] | effect of folic acid on MTX sensitivity [6]
1 | Nc1nc2c(c(=O)[nH]1)N(C=O)C(CNc1ccc(C(=O)N[C@@H](CCC(=O)O)C(=O)O)cc1)CN2 (some centres unmarked) [leucovorin] | improved growth of 3 of the 4 tested isolates | did not have any significant dose-dependent effects |  |  |  |  |  | 
2 | Nc1nc2ncc(CNc3ccc(C(=O)N[C@@H](CCC(=O)O)C(=O)O)cc3)nc2c(=O)[nH]1 [folic acid] |  |  | Neither route nor rescue resulted in a significant difference | did not markedly rescue the gut microbiota | only evident in the presence of MTX | improved in a dose-dependent manner | only evident in the presence of MTX | sensitized to MTX

Source: US20220160712A1, “METHODS OF TREATING RHEUMATOID ARTHRITIS AND FOR PREDICTING THE RESPONSE TO METHOTREXATE” (CHAN ZUCKERBERG BIOHUB, INC., priority 2020, published 2022)
